For the test, the target named is CDK9 (Homo sapiens, UniProt P50750). The test can be described thus: in vitro kinase assay. The class given is biochemical.

By IC50 is commonly meant the concentration at which inhibition is half-maximal. Lower therefore signals greater potency in that assay.

Chain of CDK9 (P50750 whole entry): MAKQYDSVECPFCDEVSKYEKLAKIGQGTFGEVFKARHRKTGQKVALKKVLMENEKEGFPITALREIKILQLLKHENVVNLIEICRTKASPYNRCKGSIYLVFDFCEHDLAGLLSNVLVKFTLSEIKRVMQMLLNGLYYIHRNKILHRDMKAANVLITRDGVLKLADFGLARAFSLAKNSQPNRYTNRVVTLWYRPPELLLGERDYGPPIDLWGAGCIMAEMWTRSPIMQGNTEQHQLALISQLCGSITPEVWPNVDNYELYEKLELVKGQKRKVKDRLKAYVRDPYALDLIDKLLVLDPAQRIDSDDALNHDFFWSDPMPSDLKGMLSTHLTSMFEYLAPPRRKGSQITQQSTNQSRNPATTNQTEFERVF

`Cc1cc(O)c(-c2ccc([C@@H](C)CN(C)C)cc2)c2c1[nH]c(=O)c1sccc12` [OTS964] came in with a 50% inhibitory concentration (IC50) of 0.65 µM. In other words, the sub-micromolar range.

The values are drawn from article PMC12324462 (bioRxiv, 2025).
